Measurements reported in patent publication US20230203023A1, “SALT AND CRYSTAL FORMS OF GLP-1R AGONISTS AND USES THEREOF” (QILU REGOR THERAPEUTICS INC., priority 2020, published 2023).
Counter-ions that a name gives are not always drawn. Marks after values point to notes of the source that are not given here. One block for each compound: values may come before it.

How the values were obtained:
Format in all cases: physicochemical
[1] = Solution stability evaluation in SGF (pH 1.8) and pH 8.0 buffer at RT
Experimental: Weigh 100 mg of sodium chloride and 50 mg of Triton X-100 into a 50-mL volumetric flask. Add appropriate volume of purified water and sonicate until all solids are completely dissolved. Add about 68 μL of 12 M HCl and sufficient purified water closely to the target volume and adjust to pH 1.8. Dilute to volume with purified water, mix well and check the pH with a pH meter.
Add sufficient purified water closely to the target volume and adjust to pH 8.0. Dilute to volume with purified water, mix well and check the pH with a pH meter. […]
Solution stability was evaluated for 1:1 Compound II Citrate Salt (Form A) and 1:1 Compound II Tris Salt (Form B) in SGF (pH 1.8) and pH 8.0 buffer at RT. Clear solutions were prepared at two concentrations (0.01 mg/mL, 0.05 mg/mL) and then placed at RT for 6 hours, 1/5 days or 6 hours, 1/3/7 days. […] The HPLC purity and pH value were tested and the results were summarized from Table 7-3-1 to Table 7-3-4.

[2] = VH-XRPD, dehydration of the hydrate
Experimental: VH-XRPD and single crystal structure determination were performed for 1:1 Compound I Tris Salt (Form A) and it was identified as a monohydrate, which would dehydrate at the ≤30%RH condition.
VH-XRPD was performed for a 1:1 Compound II tris salt (Form B) sample for further identification. […] Combining the characterization results, it is believe that 1:1 Compound II tris salt (Form B) is a hydrate, which would dehydrate below ≤10% RH.

[3] = Polymorph screening; details: solution crystallization and solid transition methods
Experimental: Polymorph screening experiments on 1:1 Compound I Tris Salt (Form A) were performed under vairous conditions using different solution crystallization or solid transition methods, including anti-solvent addition, reverse anti-solvent addition, slow evaporation, slow cooling, slurry at RT, slurry at 50° C., slurry cycling 5-50° C., vapor-solid diffusion, vapor-solution diffusion, polymer induced crystallization, and grinding.

[4] = 0.01 mg/mL, pH 1.8 (SGF), Initial
[5] = 0.01 mg/mL, pH 1.8 (SGF), RT, 6 hours
[6] = 0.01 mg/mL, pH 8.0 (50 mM phosphate), Initial
[7] = 0.01 mg/mL, pH 8.0 (50 mM phosphate), RT, 6 hours
[8] = 0.05 mg/mL, pH 1.8 (SGF), Initial
[9] = 0.05 mg/mL, pH 1.8 (SGF), RT, 6 hours
[10] = 0.05 mg/mL, pH 8.0 (50 mM phosphate), Initial
[11] = 0.05 mg/mL, pH 8.0 (50 mM phosphate), RT, 6 hours
[12] = 1 day, 0.01 mg/mL, pH 1.8 (SGF), RT
[13] = 1 day, 0.01 mg/mL, pH 8.0 (50 mM phosphate), RT
[14] = 1 day, 0.05 mg/mL, pH 1.8 (SGF), RT
[15] = 1 day, 0.05 mg/mL, pH 8.0 (50 mM phosphate), RT
[16] = 5 days, 0.01 mg/mL, pH 1.8 (SGF), RT
[17] = 5 days, 0.01 mg/mL, pH 8.0 (50 mM phosphate), RT
[18] = 5 days, 0.05 mg/mL, pH 1.8 (SGF), RT
[19] = 5 days, 0.05 mg/mL, pH 8.0 (50 mM phosphate), RT
[20] = 0.01 mg/mL, pH 1.8 (SGF), RT, 1 day
[21] = 0.01 mg/mL, pH 1.8 (SGF), RT, 5 days
[22] = 0.01 mg/mL, pH 8.0 (50 mM phosphate), RT, 1 day
[23] = 0.01 mg/mL, pH 8.0 (50 mM phosphate), RT, 5 days
[24] = 6 hours, 0.01 mg/mL, pH 1.8 (SGF), RT
[25] = 6 hours, 0.01 mg/mL, pH 8.0 (50 mM phosphate), RT
[26] = 6 hours, 0.05 mg/mL, pH 1.8 (SGF), RT
[27] = 6 hours, 0.05 mg/mL, pH 8.0 (50 mM phosphate), RT
[28] = 3 days, 0.01 mg/mL, pH 1.8 (SGF), RT
[29] = 3 days, 0.01 mg/mL, pH 8.0 (50 mM phosphate), RT
[30] = 3 days, 0.05 mg/mL, pH 1.8 (SGF), RT
[31] = 3 days, 0.05 mg/mL, pH 8.0 (50 mM phosphate), RT
[32] = 7 days, 0.01 mg/mL, pH 1.8 (SGF), RT
[33] = 7 days, 0.01 mg/mL, pH 8.0 (50 mM phosphate), RT
[34] = 7 days, 0.05 mg/mL, pH 1.8 (SGF), RT
[35] = 7 days, 0.05 mg/mL, pH 8.0 (50 mM phosphate), RT
[36] = Initial, 0.01 mg/mL, pH 1.8 (SGF), RT
[37] = Initial, 0.01 mg/mL, pH 8.0 (50 mM phosphate), RT
[38] = Initial, 0.05 mg/mL, pH 1.8 (SGF), RT
[39] = Initial, 0.05 mg/mL, pH 8.0 (50 mM phosphate), RT

Purity (% area) [1, 4]: 100.00 % area
pH [1, 4]: 1.8
Purity (% area) [1, 5]: 100.00 % area
Purity vs. Initial (%) [1, 5]: 100.0%
pH [1, 5]: 1.8
Purity (% area) [1, 6]: 98.67 % area
pH [1, 6]: 8.0
Purity (% area) [1, 7]: 97.89 % area
Purity vs. Initial (%) [1, 7]: 99.2%
pH [1, 7]: 8.0
Purity (% area) [1, 8]: 97.84 % area
pH [1, 8]: 1.8
Purity (% area) [1, 9]: 97.54 % area
Purity vs. Initial (%) [1, 9]: 99.7%
pH [1, 9]: 1.8
Purity (% area) [1, 10]: 98.22 % area
pH [1, 10]: 8.0
Purity (% area) [1, 11]: 98.03 % area
Purity vs. Initial (%) [1, 11]: 99.8%
pH [1, 11]: 8.0
Purity (% area) [1, 12]: 98.51 % area
Purity vs. Initial (%) [1, 12]: 98.5%
pH [1, 12]: 1.8
Purity (% area) [1, 13]: 97.36 % area
Purity vs. Initial (%) [1, 13]: 98.7%
pH [1, 13]: 8.0
Purity (% area) [1, 14]: 96.61 % area
Purity vs. Initial (%) [1, 14]: 98.7%
pH [1, 14]: 1.8
Purity (% area) [1, 15]: 97.95 % area
Purity vs. Initial (%) [1, 15]: 99.7%
pH [1, 15]: 8.0
Purity (% area) [1, 16]: 94.05 % area
Purity vs. Initial (%) [1, 16]: 94.1%
pH [1, 16]: 1.9
Purity (% area) [1, 17]: 97.14 % area
Purity vs. Initial (%) [1, 17]: 98.5%
pH [1, 17]: 7.9
Purity (% area) [1, 18]: 92.31 % area
Purity vs. Initial (%) [1, 18]: 96.1%
pH [1, 18]: 1.8
Purity (% area) [1, 19]: 97.75 % area
Purity vs. Initial (%) [1, 19]: 99.5%
pH [1, 19]: 8.0
Structure (SMILES): N#Cc1ccc(COc2cccc(C3=CCN(Cc4nc5ccc(C(=O)O)cc5n4C[C@@H]4CCO4)CC3)n2)c(F)c1 [Citrate salt Form A, (S)-2-((6-((4-cyano-2-fluorobenzyl)oxy)-3′,6′-dihydro-[2,4′-bipyridin]-1′(2′H)-yl)methyl)-1-(oxetan-2-ylmethyl)-1H-benzo[d]imidazole-6-carboxylic acid]

Purity (% area) [1, 4]: 100.00 % area
pH [1, 4]: 1.8
Purity (% area) [1, 5]: 100.00 % area
Purity vs. Initial (%) [1, 5]: 100.0%
pH [1, 5]: 1.8
Purity (% area) [1, 20]: 100.00 % area
Purity vs. Initial (%) [1, 20]: 100.0%
pH [1, 20]: 1.8
Purity (% area) [1, 21]: 97.40 % area
Purity vs. Initial (%) [1, 21]: 97.4%
pH [1, 21]: 1.8
Purity (% area) [1, 6]: 97.70 % area
pH [1, 6]: 8.1
Purity (% area) [1, 7]: 96.92 % area
Purity vs. Initial (%) [1, 7]: 99.2%
pH [1, 7]: 8.0
Purity (% area) [1, 22]: 96.07 % area
Purity vs. Initial (%) [1, 22]: 98.3%
pH [1, 22]: 8.0
Purity (% area) [1, 23]: 94.34 % area
Purity vs. Initial (%) [1, 23]: 96.6%
pH [1, 23]: 8.0
Stability of the pH 1.8 solution, in words ([1]; SGF pH 1.8, RT, after 1 day): No significant degradation
Stability of the pH 8.0 solution, in words ([1]; pH 8.0 buffer, RT): decreased slightly
Relative humidity at which the hydrate would dehydrate [2]: ≤ 30 % RH
Structure (SMILES): O=C(O)c1ccc2nc(CN3CC=C(c4cccc(OCc5ccc(Cl)cc5F)c4)CC3)n(C[C@@H]3CCO3)c2c1 [Tris salt Form A, (S)-2-((4-(3-((4-chloro-2-fluorobenzyl)-oxy)phenyl)-3,6-dihydropyridin-1(2H)-yl)methyl)-1-(oxetan-2-ylmethyl)-1H-benzo[d]-imidazole-6-carboxylic acid]
Form change in polymorph screening [3]: did not change under most of the test conditions

Purity (% area) [1, 24]: 94.92 % area
Purity vs. Initial (%) [1, 24]: 99.7%
pH [1, 24]: 1.8
Purity (% area) [1, 25]: 98.97 % area
Purity vs. Initial (%) [1, 25]: 99.9%
pH [1, 25]: 8.0
Purity (% area) [1, 26]: 97.53 % area
Purity vs. Initial (%) [1, 26]: 99.3%
pH [1, 26]: 1.8
Purity (% area) [1, 27]: 99.28 % area
Purity vs. Initial (%) [1, 27]: 100.0%
pH [1, 27]: 8.0
Purity (% area) [1, 12]: 94.11 % area
Purity vs. Initial (%) [1, 12]: 98.8%
pH [1, 12]: 1.8
Purity (% area) [1, 13]: 98.38 % area
Purity vs. Initial (%) [1, 13]: 99.3%
pH [1, 13]: 8.0
Purity (% area) [1, 14]: 96.40 % area
Purity vs. Initial (%) [1, 14]: 98.1%
pH [1, 14]: 1.8
Purity (% area) [1, 15]: 98.86 % area
Purity vs. Initial (%) [1, 15]: 99.6%
pH [1, 15]: 8.0
Purity (% area) [1, 28]: 91.81 % area
Purity vs. Initial (%) [1, 28]: 96.4%
pH [1, 28]: 1.8
Purity (% area) [1, 29]: 98.26 % area
Purity vs. Initial (%) [1, 29]: 99.2%
pH [1, 29]: 8.0
Purity (% area) [1, 30]: 93.38 % area
Purity vs. Initial (%) [1, 30]: 95.0%
pH [1, 30]: 1.8
Purity (% area) [1, 31]: 98.98 % area
Purity vs. Initial (%) [1, 31]: 99.7%
pH [1, 31]: 8.0
Purity (% area) [1, 32]: 87.14 % area
Purity vs. Initial (%) [1, 32]: 91.5%
pH [1, 32]: 1.8
Purity (% area) [1, 33]: 97.31 % area
Purity vs. Initial (%) [1, 33]: 98.3%
pH [1, 33]: 8.0
Purity (% area) [1, 34]: 87.15* % area
Purity vs. Initial (%) [1, 34]: 88.7%
pH [1, 34]: 1.8
Purity (% area) [1, 35]: 98.75 % area
Purity vs. Initial (%) [1, 35]: 99.5%
pH [1, 35]: 8.0
Purity (% area) [1, 36]: 95.25 % area
pH [1, 36]: 1.8
Purity (% area) [1, 37]: 99.04 % area
pH [1, 37]: 8.0
Purity (% area) [1, 38]: 98.26 % area
pH [1, 38]: 1.8
Purity (% area) [1, 39]: 99.27 % area
pH [1, 39]: 8.0
Relative humidity at which the hydrate would dehydrate [2]: ≤ 10 % RH
Structure (SMILES): N#Cc1ccc(COc2cccc(C3=CCN(Cc4nc5ccc(C(=O)O)cc5n4C[C@@H]4CCO4)CC3)n2)c(F)c1 [Tris salt Form B, (S)-2-((6-((4-cyano-2-fluorobenzyl)oxy)-3′,6′-dihydro-[2,4′-bipyridin]-1′(2′H)-yl)methyl)-1-(oxetan-2-ylmethyl)-1H-benzo[d]imidazole-6-carboxylic acid]
